Measurements: the NIST ThermoML archive (doi:10.1021/je1001945)
± gives the expanded uncertainty stated by the source.

Details: Crystal; visual observation

Normal melting temperature: 215 ± 1 °C
SMILES: c1ccc2cc3ccccc3cc2c1 [anthracene]
